Measurements from patent US20120184548A1, “CARBOXYLIC ACID ARYL AMIDES” (priority 2011, published 2012).

Key:
[1] = target: T1, Human DYRK1B (Homo sapiens, UniProt Q9Y463); test: DYRK1B Kinase TR-FRET (IMAP-Tb) Assay; assay type: biochemical; conditions: TR-FRET; ATP 70 μM; 37° C. for 60 minutes; averages of multiple runs; read-out: Enzyme IC50 DYRK1B
T1 construct: purchased Invitrogen PR8350B (former PV4649)

[2] = target: T2, Human DYRK1A (Homo sapiens, UniProt Q13627); test: DYRK1A Kinase TR-FRET (IMAP-Tb) Assay; assay type: biochemical; conditions: TR-FRET; ATP 70 μM; 37° C. for 60 minutes; averages of multiple runs; read-out: Enzyme IC50 DYRK1A
T2 construct: purchased Invitrogen PV3997

[3] = test system: SW620 human colon cancer cells; test: SW620 Cell Viability Assay (CellTiter-Glo); assay type: cell-based; conditions: SW-620, 96 h, 4 days incubation, read-out: Cellular EC50 SW620
Protocol: 1. Cell Plate Preparation: SW620 human colon cancer cells (known to express DYRK1B), obtained from ATCC, were seeded into 96-well plates at […] in 50 μL of media. • Harvested the required number of cells (counts & viability determined by Guava Viacount). • Centrifuge cells to pellet and removed supernant. • Resuspended in growth media (50 μL/well) & pipetted thoroughly to break up clumps. • Setup for ˜100 wells/plate, therefore, VT=5 mL/plate @ 1.2×10^5 cells/mL. 1A. Some cells (S-) were allowed to attach for 24 hrs, serum starved for 48 hrs, and then followed with treatments of test compound.
Test Compound solution was prepared in regular corresponding media supplemented with serum
2. Test Compound Preparation: Test compounds were solubilized in either DMSO or media and prepared at various stock concentrations. • All compounds were incubated at 37° C. for 30 minutes and vortexed. • (5 mM stocks of test compound were prepared for non-soluble drugs)
3. Test Compound Plate Preparation:
• The 10 mM test compound stock was diluted to a concentration of 100× the final Cmax concentration. • Then the test compound stock is diluted 50-fold in media and/or second test compound for a final Cmax concentration in the test compound plate. • The Cmax in the test compound plate (2% DMSO) is 2-fold higher than the final Cmax in the cell plate (60 uL titrations were 1:3). 4. Viability Assay: This assay was performed as follows: • Transfer 50 μL of test compound solution per well from the test compound plate onto the cell plate prepared in Step #1. • Mix the plate with treated cells by pipetting up and down three times with 200 μL multi-channel pipet. • Incubate the cells in 5% CO2 incubator @ 37° C. for 4 days. • Run the CellTiter-Glo™ Luminescent Cell Viability Assay. The results of this assay, given as EC50 values, indicate the concentration of test compound that inhibits tumor cell proliferation by 50%.

T1 sequence (Q9Y463 whole entry): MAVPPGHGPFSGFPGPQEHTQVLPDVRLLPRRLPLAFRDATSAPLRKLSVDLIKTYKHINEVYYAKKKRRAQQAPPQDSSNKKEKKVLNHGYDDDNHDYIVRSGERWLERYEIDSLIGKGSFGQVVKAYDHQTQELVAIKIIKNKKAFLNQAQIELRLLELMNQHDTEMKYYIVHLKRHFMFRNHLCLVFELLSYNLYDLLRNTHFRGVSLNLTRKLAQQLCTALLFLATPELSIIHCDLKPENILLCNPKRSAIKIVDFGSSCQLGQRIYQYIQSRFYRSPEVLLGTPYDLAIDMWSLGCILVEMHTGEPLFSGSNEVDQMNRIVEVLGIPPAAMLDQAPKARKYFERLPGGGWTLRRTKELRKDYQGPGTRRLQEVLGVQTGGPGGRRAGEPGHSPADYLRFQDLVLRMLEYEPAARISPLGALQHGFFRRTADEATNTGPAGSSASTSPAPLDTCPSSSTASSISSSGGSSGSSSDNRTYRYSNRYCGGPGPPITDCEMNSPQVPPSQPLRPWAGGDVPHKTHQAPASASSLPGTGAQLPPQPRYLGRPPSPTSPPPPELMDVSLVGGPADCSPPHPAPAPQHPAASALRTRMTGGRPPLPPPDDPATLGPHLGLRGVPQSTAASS

COCCOc1cc2cc(C(=O)Nc3cc(C(=O)N[C@@H](CCN)c4ccccc4)ccc3Cl)c(=O)[nH]c2cc1OC [Example 64, (S)-N-(5-(3-Amino-1-phenylpropylcarbamoyl)-2-chlorophenyl)-7-methoxy-6-(2-methoxyethoxy)-2-oxo-1,2-dihydroquinoline-3-carboxamide]
IC50 [1]: 253 nM | IC50 [2]: 186 nM | EC50 [3]: 9200 nM
